These results are taken from US9987243B2, “Use of trans-palmitoleate in identifying and treating metabolic disease” (Trustees of Tufts College, priority 2010, dated 2018).

Each structure is given as a SMILES string.

In this assay the test system is 2,985 participants free of prevalent diabetes at baseline. In words: Cardiovascular Health Study: plasma phospholipid fatty acids and incident diabetes mellitus (Cox proportional-hazards). The format is in vivo, human. The note with it: per each higher SD of the plasma phospholipid fatty acid; multivariable-adjusted (covariates as in Table 4). How it is done: Plasma phospholipid fatty acids, anthropometry, blood lipids, inflammatory markers, and glucose-insulin levels were measured at baseline using standardized methods. Independent determinants of trans-palmitoleate and relationships of trans-palmitoleate with metabolic risk factors were investigated using multivariable-adjusted linear regression.
Multivariable model adjusted for age (years), gender (male/female), race (white/nonwhite), education (<high school, high school, some college, college graduate), enrollment site (four sites), smoking (never, former, current), body mass index (kg/m^2), waist circumference (cm), coronary heart disease (yes/no), physical activity (kcal/wk), alcohol use (six categories), and consumption of carbohydrate (% energy), protein (% energy), red meat (servings/week), whole-fat dairy foods (6 categories), low-fat dairy foods (five categories), and total energy (kcal/d).
Participants were followed by means of annual examinations for 10 years with interim and subsequent 6-month telephone contacts. Ives et al., 5 Ann. Epidemiol. […] At each visit, detailed medication information was obtained using medication inventories. At baseline, study interviewers visited participants in their homes and asked to see all prescription medications they had taken in the previous 2 weeks. At follow-up exams, participants brought to clinic all prescription medications taken in the previous 2 weeks. Drug names, doses, and frequencies were coded according to prescription medication Medispan files.
Relationships between phospholipid fatty acids were evaluated using Spearman correlation. Trans-palmitoleate levels were evaluated in sex-specific quintiles as indicator variables and continuously per SD difference. Independent demographic and lifestyle determinants of trans-palmitoleate were evaluated using multivariable-adjusted linear regression with trans-palmitoleate as the dependent variable. Multivariable-adjusted relationships of trans-palmitoleate with metabolic risk factors (transformed for normality as appropriate) were evaluated using linear regression with trans-palmitoleate as the independent variable. Quintiles were evaluated as ordinal variables to assess trend, to assess effect modification using the Wald test for a multiplicative interaction term, and to assess differences in baseline characteristics by means of linear or logistic regression. […] To minimize potential confounding, covariates were selected based on biologic interest, being well-established risk factors for metabolic risk, or associations with exposures/outcomes in the present cohort. […] Analyses were performed using Stata10.1 (College Station, Tex.), two-tailed alpha=0.05.
Regarding `CCCCCCCCCCCCCCC(=O)O` [15:0, pentadecanoic acid, reference compound], the “RR of diabetes per SD” value came out at 1.01.
The value for `CCCCCCCCCCCCCCCCC(=O)O` [17:0, reference compound] was 0.98.
Regarding `CCCCCC/C=C/CCCCCCCCCC(=O)O` [Vaccenic acid, vaccenic acid, reference compound], the “RR of diabetes per SD” value is 0.89.
